The record followed here is patent publication US7405211B2, “Therapeutic morpholino-substituted compounds” (AstraZeneca AB, priority 2000, dated 2008).

Holding throughout (type): biochemical
Experiment [1] relates to PI 3-kinase immunoprecipitated from human platelets. As to the kind of experiment: In vitro PI 3-kinase assay (32P incorporation into PI). Conditions: PI 3-kinase from human platelets, PI substrate. The protocol:
The effect of TGX-25, TGX-33, TGX-37, TGX-40, TGX-41, TGX-57, TGX-84, TGX-90, TGX-93, TGX-98, TGX-99, TGX-101, TGX-106, TGX-107, TGX-108, TGX-109, TGX-111, TGX-112, TGX-113, TGX-115, TGX-120, TGX-121, TGX-123, TGX-124, TGX-126, TGX-127, TGX-130 or TGX-131on PI 3-kinase activity was determined using an in vitro PI 3-kinase assay. This assay was performed using PI 3-kinase immunoprecipitated from human platelets as the enzyme and PI as the substrate. The PI 3-kinase activity was quantitated by measuring the enzymatic incorporation of [^32P] into PI, forming PI([^32P]-3)P, as previously described (Susa et al., 1992, The Journal of Biological Chemistry 267(32):22951-22956.
Washed human platelets were lysed in Triton X-100 lysis buffer (10 mM Tris, pH 7.4, 1% Triton X-100, 2 mM EDTA, 1 mM PMSF) for 30 minutes. The Triton X-100 insoluble fraction was removed by centrifugation of the cell lysates at 15,000 g for 10 minutes. PI 3-kinase was immunoprecipitated by mixing 500 μg of the cell lysate with 1 μg of a rabbit anti-rat antibody against the p85/110 form of PI 3-kinase and 30 μl of 50% Protein A-sepharose beads for 2 hours at 4° C. The Protein A-sepharose-bound PI 3-kinase was isolated by pelleting the beads at 15,000 g for 5 seconds, and washing three times with ice-old Triton X-100 lysis buffer followed by four washes with PI 3-kinase assay buffer (20 mM HEPES, pH 7.4, 1 mM EGTA, 5 mM MgCl2).
PI stored in CHCl3 was dried under N2, resuspended in the lipid buffer (50 mM HEPES, pH 7.2, 1 mM EDTA) at a final concentration of 330 μg/ml, and sonicated for 6 minutes on ice. PI([^32P]-3)P was generated by mixing the immunoprecipitated PI 3-kinase for 20 minutes with 40 μl of the PI, 10 μl of ATP (1 mM) and ^32P-r-ATP (0.5 μCi, 1 μCi/nmol), 10 μl of 10× kinase buffer, in a final assay volume of 100 μl adjusted with H2O. TGX-25, TGX-33, TGX-37, TGX-40, TGX-41, TGX-57, TGX-84, TGX-90, TGX-93, TGX-98, TGX-99, TGX-101, TGX-106, TGX-107, TGX-108, TGX-109, TGX-111, TGX-112, TGX-113, TGX-115, TGX-120, TGX-121, TGX-123, TGX-124, TGX-126, TGX-127, TGX-130 or TGX-131 was preincubated with the PI 3-kinase for 5 minutes prior to the addition of ATP. The assay was terminated with 100 μl of 1 N HCl, and the PI([^32P]-3)P product extracted with 200 μl chloroform:methanol (1:1) and 500 μl 2 M KCl. The PI([^32P]-3)P in the chloroform phase was resolved by thin layer chromatography using a solvent system containing CHCl3:MeOH:HAC:H2O (43:38:5:7) (v:v:v:v), and visualized by autoradiography. The PI([^32P]-3)P spots were then scraped off from the TLC plates, deacylated with 1 ml methylamine:butanol:methanol (42:9:47) (v:v:v) for 4 hours at 53° C., and quantitated using a liquid scintillation counter (LKB 1209 RackBETA).

The next experiment has as its target PI3K α/β isoforms. As to the kind of experiment: In vitro enzyme assay PI3K α/β. Conditions: immunoprecipitated from platelet lysate. The protocol: (§1) In vitro enzyme assays were conducted as a primary screen to determine drug candidate isoform affinity and specificity.
(§2) The α and β isoforms of the PI3K were immunoprecipitated from a platelet lysate using an antibody that recognised the p85 regulatory subunit common to both forms of the enzyme. The γ isoform was produced as a recombinant protein in the Thrombogenix laboratories. […] Standard phosphorylation assays using phosphatidylinositol and ^32P were used to measure the enzyme activity in the immunoprecipates in the presence or absence of an inhibitor. Enzyme activity was determined over a range of inhibitor concentrations to establish an IC50 value.

Another experiment deals with T1, PI3K γ (Homo sapiens, UniProt P48736).
T1 construct: made in house
As to the kind of experiment: In vitro enzyme assay PI3K γ (recombinant). Conditions: recombinant γ isoform. The protocol: as §1, §2

Where only a bound is given, the exact number is not on record here.

T1 sequence (P48736 whole entry, species assumed): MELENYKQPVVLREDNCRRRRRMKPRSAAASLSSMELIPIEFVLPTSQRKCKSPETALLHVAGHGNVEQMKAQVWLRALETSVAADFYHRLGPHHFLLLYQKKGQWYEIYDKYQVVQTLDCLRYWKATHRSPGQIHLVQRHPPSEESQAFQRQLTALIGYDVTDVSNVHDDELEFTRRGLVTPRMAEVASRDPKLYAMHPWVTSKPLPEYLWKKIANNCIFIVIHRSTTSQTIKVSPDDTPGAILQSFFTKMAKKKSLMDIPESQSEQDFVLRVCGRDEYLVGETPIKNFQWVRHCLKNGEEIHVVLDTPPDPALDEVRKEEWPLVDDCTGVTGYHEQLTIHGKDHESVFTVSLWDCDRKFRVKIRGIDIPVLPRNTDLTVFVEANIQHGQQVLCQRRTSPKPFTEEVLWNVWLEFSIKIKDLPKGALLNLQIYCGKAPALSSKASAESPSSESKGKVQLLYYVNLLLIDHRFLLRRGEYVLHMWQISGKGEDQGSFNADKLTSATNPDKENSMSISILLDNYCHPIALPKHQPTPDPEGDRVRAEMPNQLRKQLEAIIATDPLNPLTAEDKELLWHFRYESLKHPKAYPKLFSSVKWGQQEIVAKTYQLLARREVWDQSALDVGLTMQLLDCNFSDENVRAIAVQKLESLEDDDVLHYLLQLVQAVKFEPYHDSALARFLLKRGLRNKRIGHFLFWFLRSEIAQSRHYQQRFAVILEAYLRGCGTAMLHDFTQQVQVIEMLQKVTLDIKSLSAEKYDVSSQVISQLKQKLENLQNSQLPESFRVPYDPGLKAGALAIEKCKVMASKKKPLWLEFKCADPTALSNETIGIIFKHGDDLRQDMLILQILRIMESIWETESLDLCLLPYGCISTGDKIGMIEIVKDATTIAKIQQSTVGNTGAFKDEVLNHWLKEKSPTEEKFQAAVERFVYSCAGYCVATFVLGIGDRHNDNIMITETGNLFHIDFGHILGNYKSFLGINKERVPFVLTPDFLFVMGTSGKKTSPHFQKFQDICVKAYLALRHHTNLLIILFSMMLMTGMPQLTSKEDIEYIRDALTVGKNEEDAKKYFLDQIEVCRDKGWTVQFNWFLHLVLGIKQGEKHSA

Usually IC50 stands for the point on the concentration scale where inhibition reaches its midpoint. As for `Cc1cc(Oc2cccc3c(=O)cc(N4CCOCC4)oc23)ccc1F` [TGX-173, 8-(4-fluoro-3-methylphenyl)oxy-2-morpholinyl-4H-1-benzopyran-4-one], the IC50 is 0.1 µM in experiment [1] and 0.15 µM on PI3K α/β isoforms. The molecule `O=C(O)c1cccc(Oc2cccc3c(=O)cc(N4CCOCC4)[nH]c23)c1` [TGX-151] came in with an IC50 in experiment [1] of 0.5 µM. Consider `O=c1cc(N2CCOCC2)oc2c(OCc3ccccc3)cccc12` [TGX-102], for which the IC50 in experiment [1] was found to be 0.1 µM; against PI3K α/β isoforms, 0.1 µM; at PI3K γ, 2 µM. Molecule `Cc1cc(CNc2ccccc2)c2nc(N3CCOCC3)cc(=O)n2c1` [TGX-183, 6-methyl-8-phenylaminomethyl-2-morpholinyl-4H-pyrido[1,2]pyrimidin-4-one] displayed an IC50 on PI3K α/β isoforms of 0.05 µM. Turning to `O=c1cc(N2CCOCC2)nc2c(-c3ccccc3)cccn12` [TGX-37], in experiment [1], the IC50 was roughly 10.5 µM.

As for `O=c1cc(N2CCOCC2)oc2cc(/C=C/c3ccccc3)ccc12` [TGX-118], in experiment [1], the half-inhibitory concentration (IC50) worked out at 10 µM. On the same count and under the same terms, in the case of `Cc1cc(Nc2ccncc2)c2nc(N3CCOCC3)cc(=O)n2c1` [TGX-120] it was 1 µM; in that of `Cc1cc(Nc2ccc(Cl)cc2)c2nc(N3CCOCC3)cc(=O)n2c1` [TGX-107], 1 µM.

For `Cc1c(Oc2ccccc2)ccc2c(=O)cc(N3CCOCC3)oc12` [TGX-159], in experiment [1], the half-maximal inhibitory concentration (IC50) came out at 10 µM. For the molecule `COC(=O)c1cccc(Oc2cccc3c(=O)cc(N4CCOCC4)[nH]c23)c1` [TGX-149], the IC50 in experiment [1] came to 0.5 µM. As for `Cc1cc(Nc2ccc(O)cc2)c2nc(N3CCOCC3)cc(=O)n2c1` [TGX-101], the IC50 in experiment [1] turned out to be 0.1 µM; against PI3K α/β isoforms it was 0.1 µM; on PI3K γ, 2 µM. Turning to `Cc1ccccc1Oc1cccc2c(=O)cc(N3CCOCC3)[nH]c12` [TGX-115, 8-(2′-Methylphenoxy)-2-morpholino-4-quinoline], the figures for the IC50 (in experiment [1]; against PI3K α/β isoforms; on PI3K γ) were 0.05 µM, 0.05 µM and 5 µM, respectively. `Cc1cc(-c2ccccc2C(F)(F)F)c2nc(N3CCOCC3)cc(=O)n2c1` [TGX-142] showed an IC50 in experiment [1] of 2 µM. Turning to `O=c1cc(N2CCOCC2)oc2c(Oc3ccccc3)cccc12` [TGX-134, 2-(4-morpholinyl)-8-phenoxy-4H-1-benzopyran-4-one], the IC50 in experiment [1] amounted to 0.1 µM; at PI3K α/β isoforms, 0.1 µM; on PI3K γ, 0.2 µM. In experiment [1], `Cc1cc(-c2ccccc2)c2nc(N3CCOCC3)cc(=O)n2c1` [TGX-41] had an IC50 of roughly 9.8 µM.

In experiment [1], `Cc1cc(Nc2ccccc2OCCN(C)C)c2nc(N3CCOCC3)cc(=O)n2c1` [TGX-162] returned an IC50 of 2 µM.

In the case of `Cc1cc(Nc2ccc(F)cc2C)c2nc(N3CCOCC3)cc(=O)n2c1` [TGX-170], the half-maximal inhibitory concentration (IC50) in experiment [1] was 0.2 µM. The molecule `O=c1cc(N2CCOCC2)oc2c(-c3ccccc3C(F)(F)F)cccc12` [TGX-135, 2-morpholinyl-8-(2-trifluoromethylphenyl)-4H-1benzopyran-4-one] came in with an IC50 in experiment [1] of 0.2 µM. Still for that read-out and setting: in the case of `O=c1cc(N2CCOCC2)[nH]c2c(Cc3ccc(F)cc3)cccc12` [TGX-99] it was 1 µM; in that of `Cc1ccccc1-c1cccc2c(=O)cc(N3CCOCC3)oc12` [TGX-145, 2-morpholinyl-8-(2-methylphenyl)-4H-1-benzopyran-4-one], 2 µM; in that of `Cc1cc(Cl)ccc1Oc1cccc2c(=O)cc(N3CCOCC3)[nH]c12` [TGX-180], 1 µM.

Consider `O=c1cc(N2CCOCC2)oc2c(Cc3ccccc3)cccc12` [TGX-90, 2-morpholinyl-8-(phenylmethyl)-4H-1-benzopyran-4-one], for which the IC50 in experiment [1] came to 0.1 µM; against PI3K α/β isoforms, 0.1 µM; at PI3K γ it was 3 µM. In the case of `Cc1cc(NCc2ccccn2)c2nc(N3CCOCC3)cc(=O)n2c1` [TGX-161], the IC50 in experiment [1] was found to be 0.5 µM.

On to `Cc1c(OCc2ccccc2)ccc2c(=O)cc(N3CCOCC3)oc12` [TGX-154], for which inhibition in experiment [1] was half-maximal at 10 µM (IC50). For the molecule `Cc1cc(NCC2CCNCC2)c2nc(N3CCOCC3)cc(=O)n2c1` [TGX-139], the IC50 in experiment [1] turned out to be 1 µM. `Cc1ccc(Oc2cc(C)cn3c(=O)cc(N4CCOCC4)nc23)cc1` [TGX-109] returned an IC50 in experiment [1] of 1 µM.

Molecule `Cc1cc(CCc2ccncc2)c2nc(N3CCOCC3)cc(=O)n2c1` [TGX-98] yielded an IC50 in experiment [1] of 1 µM. Still for that read-out and setting: in the case of `Cc1cc(Nc2ccccc2O)c2nc(N3CCOCC3)cc(=O)n2c1` [TGX-130] it was 0.2 µM.

As to `Cc1cc(NCc2ccccc2)c2nc(N3CCOCC3)cc(=O)n2c1` [TGX-126], the IC50 is 0.05 µM in experiment [1], 0.05 µM at PI3K α/β isoforms and greater than 10 µM at PI3K γ. In experiment [1], `O=c1cc(N2CCOCC2)oc2c(O)cccc12` [TGX-125] showed an IC50 of 25 µM. Molecule `Cc1c(Oc2ccccc2)ccc2c(=O)cc(N3CCOCC3)oc12` [TGX-158] gave an IC50 in experiment [1] of 5 µM. `Cc1cc(Nc2ccccc2C(F)(F)F)c2nc(N3CCOCC3)cc(=O)n2c1` [TGX-147]: the half-inhibitory concentration (IC50) in experiment [1] turned out to be 5 µM. For `O=c1cc(N2CCOCC2)[nH]c2c(Cc3ccccc3)cccc12` [TGX-57, 8-Benzyl-2-morpholinoquinolone], in experiment [1], the IC50 is 2 µM. Consider `O=c1cc(N2CCOCC2)oc2c(-c3ccc(F)cc3)cccc12` [TGX-165, 2-morpholinyl-8-(4-fluorophenyl)-4H-1-benzopyran-4-one], for which half-maximal inhibition in experiment [1] (IC50) required 1 µM. As to `O=c1cc(N2CCOCC2)oc2cc(OCc3cccnc3)ccc12` [TGX-144], 2 µM corresponded to half-maximal inhibition in experiment [1] (IC50). In experiment [1], `Cc1c(Oc2ccccc2)ccc2c(=O)cc(N3CCOCC3)oc12` [TGX-157] came in with an IC50 of 5 µM. As to `Cc1cc(N[C@@H](C)c2ccccc2)c2nc(N3CCOCC3)cc(=O)n2c1` [TGX-124], in experiment [1], the IC50 is 1 µM. On the same count and under the same terms, in the case of `Cc1cc(C2CCN(C)C2=O)c2nc(N3CCOCC3)cc(=O)n2c1` (stereo not drawn) [TGX-153] it was 20 µM. With `Cc1cc(-c2ccsc2)c2nc(N3CCOCC3)cc(=O)n2c1` [TGX-93], the IC50 in experiment [1] stood at 1 µM. Turning to `Cc1cc(Nc2ncccc2C)c2nc(N3CCOCC3)cc(=O)n2c1` [TGX-179], in experiment [1], half-maximal inhibition (IC50) required 10 µM. As to `O=c1cc(N2CCOCC2)oc2c(-c3ccccc3Cl)cccc12` [TGX-146, 2-morpholinyl-8-(2-chlorophenyl)-4H-1-benzopyran-4-one], the IC50 in experiment [1] was found to be 0.5 µM. The molecule `Cc1cc(NCc2ccncc2)c2nc(N3CCOCC3)cc(=O)n2c1` [TGX-112] had a half-maximal inhibitory concentration (IC50) in experiment [1] of 0.5 µM.

Consider `Cc1cc(NCc2ccc(Cl)cc2)c2nc(N3CCOCC3)cc(=O)n2c1` [TGX-108], for which it took 1 µM to reach half-maximal inhibition in experiment [1] (IC50). `Cc1ccc(S(=O)(=O)Oc2cccc3c(=O)cc(N4CCOCC4)[nH]c23)cc1` [TGX-138] registered an IC50 in experiment [1] of 1 µM. Turning to `O=c1cc(N2CCOCC2)oc2c(OCc3cccnc3)cccc12` [TGX-132], in experiment [1], inhibition was half-maximal at 1 µM (IC50). Same read-out and setting: in the case of `Cc1ccc(Cc2cccc3c(=O)cc(N4CCOCC4)[nH]c23)cc1` [TGX-106] it was 2 µM; in that of `Cc1ccc(Oc2cccc3c(=O)cc(N4CCOCC4)[nH]c23)cc1` [TGX-113], 0.5 µM; in that of `Cc1c(Oc2ccccc2)ccc2c(=O)cc(N3CCOCC3)oc12` [TGX-160], 2 µM. Same read-out and setting: for `O=c1cc(N2CCOCC2)nc2c(Oc3ccccc3)cccn12` [TGX-141, 2-Morpholinyl-8-phenoxy-4H-pyrido[1,2a]pyrimidin-4-one] the value was 1 µM.

For the molecule `Cc1cccn2c(=O)cc(N3CCOCC3)nc12` [TGX-25], in experiment [1], the IC50 is roughly 11.1 µM.
